# Where two headings read alike, the source gives them in different places. Marks after values point to notes of the source that are not given here.
# Columns and labels:
# [1] = test system: Micrococcus luteus DSM 20030; experiment: MIC by microbroth dilution; assay type: cell-based; details: 16 h, 30° C., n.i. = no inhibition up to 67 μg/ml
# Experimental: (§1) Bacterial strains. Bacterial wildtype strains used in susceptibility assays were either part of HZI's strain collection or purchased from the German Collection of Microorgansims and Cell Cultures (Deutsche Sammlung von Mikroorganismen und Zellkulturen, DSMZ).
# (§2) Minimum inhibitory concentration (MIC) was determined by microbroth dilution. In brief, overnight cultures of bacteria (EBS medium) were diluted to OD600 0.01. Disciformycin A (1) or B (2) dissolved in DMSO was added directly to the cultures in 96-well plates (Sarstedt, flat bottom) in duplicate and the compound was tested in serial dilution. […] After 16 h incubation at 900 rpm and 30° C. on a microplate shaker (Titramax, Heidolph) absorbance at 600 nm was measured using a microplate reader (POLARstar Omega, BMG Labtech). MIC values were determined by sigmoidal curve fitting.
# Bacillus subtilis DSM 10 = experiment: MIC by microbroth dilution; assay type: cell-based; details: 16 h, 30° C., n.i. = no inhibition up to 67 μg/ml
# Experimental: as §1, §2
# [2] = test system: Escherichia coli DSM 1116; experiment: MIC by microbroth dilution; assay type: cell-based; details: 16 h, 30° C., n.i. = no inhibition up to 67 μg/ml
# Experimental: as §1, §2
# [3] = test system: Mycobacterium sp. DSM 43270; experiment: MIC by microbroth dilution; assay type: cell-based; details: 16 h, 30° C., n.i. = no inhibition up to 67 μg/ml
# Experimental: as §1, §2
# [4] = test system: Paenibacillus polymyxa DSM 36; experiment: MIC by microbroth dilution; assay type: cell-based; details: 16 h, 30° C., n.i. = no inhibition up to 67 μg/ml
# Experimental: as §1, §2
# [5] = test system: Mycobacterium diemhoferi DSM 43524; experiment: MIC by microbroth dilution; assay type: cell-based; details: 16 h, 30° C., n.i. = no inhibition up to 67 μg/ml
# Experimental: as §1, §2
# [6] = test system: Nocardioides simplex DSM 20130; experiment: MIC by microbroth dilution; assay type: cell-based; details: 16 h, 30° C., n.i. = no inhibition up to 67 μg/ml
# Experimental: as §1, §2
# [7] = test system: Chromobacterium violaceum DSM 30191; experiment: MIC by microbroth dilution; assay type: cell-based; details: 16 h, 30° C., n.i. = no inhibition up to 67 μg/ml
# Experimental: as §1, §2
# [8] = test system: Staphylococcus aureus DSM 346; experiment: MIC by microbroth dilution; assay type: cell-based; details: 16 h, 30° C., n.i. = no inhibition up to 67 μg/ml
# Experimental: as §1, §2
# [9] = test system: S. aureus N315 mutant Mt50DscA.5; experiment: Susceptibility (MIC) of Disciformycin A-resistant mutant; assay type: cell-based; details: Staphylococcus aureus
# [10] = test system: S. aureus N315 mutant Mt50DscA.3; experiment: as above; assay type: cell-based; details: Staphylococcus aureus
# [11] = test system: S. aureus N315 mutant Mt50DscA.6; experiment: as above; assay type: cell-based; details: Staphylococcus aureus
# [12] = test system: S. aureus N315 mutant Mt50DscA.1; experiment: as above; assay type: cell-based; details: Staphylococcus aureus
# [13] = test system: S. aureus N315 wildtype (WT); experiment: Susceptibility (MIC) of S. aureus N315 wildtype; assay type: cell-based; details: Staphylococcus aureus
# [14] = test system: S. aureus N315 mutant Mt50DscA.11; experiment: Susceptibility (MIC) of Disciformycin A-resistant mutant; assay type: cell-based; details: Staphylococcus aureus
# [15] = test system: S. aureus N315 mutant Mt50DscA.8; experiment: as above; assay type: cell-based; details: Staphylococcus aureus
# [16] = test system: S. aureus N315 mutant Mt50DscA.10; experiment: as above; assay type: cell-based; details: Staphylococcus aureus
# [17] = test system: S. aureus N315 Mt50DscA.9; experiment: as above; assay type: cell-based; details: Staphylococcus aureus
# [18] = test system: S. aureus N315 mutant Mt50DscA.2; experiment: as above; assay type: cell-based; details: Staphylococcus aureus
# [19] = test system: S. aureus N315 mutant Mt50DscA.4; experiment: as above; assay type: cell-based; details: Staphylococcus aureus
# [20] = test system: S. aureus Newman in PMA-differentiated human THP-1 cell line (macrophages); experiment: Intra-macrophage activity; assay type: cell-based; details: at 8×MIC, 18 h, MOI 10, cfu counting
# Source text: The PMA-differentiated human THP-1 cell line (macrophages) was used as cellular host for infection with S. aureus Newman at an MOI (multiplicity of infection) of 10. […] Intracellular bacteria were recovered and serial dilutions were streaked out on CASO-Agar for cfu counting. The reference drug rifampicin reduced the number of intracellular bacteria by ca. 4 logs (at 8×MIC).
# [21] = test system: Pseudomonas aeruginosa DSM 50071; experiment: MIC by microbroth dilution; assay type: cell-based; details: 16 h, 30° C., n.i. = no inhibition up to 67 μg/ml
# Experimental: as §1, §2
# [22] = test system: leukemic Mono Mac 6 cells; experiment: MTT assay, cytotoxic activity; assay type: cell-based, human; details: incubation 24 or 48 hours
# Experimental: (§3) The cytotoxic activity of gulmirecin A (3) and gulmirecin B (4) against human cells was evaluated in the well-established MTT assay using primary monocytes from human peripheral blood as well as transformed lung epithelial cell A-549 cell and leukemic Mono Mac 6 cells. Furthermore, 3 and 4 were tested against K-562, HUVEC, and HeLa cells.
# (§4) The human monocytic cell line Mono Mac 6 was cultured in RPMI 1640 medium supplemented with FCS (10%, v/v), penicillin (100 U/ml), streptomycin (100 μg/ml), insulin (10 μg/ml), oxaloacetic acid (1 mM), sodium pyruvate (1 mM), and 1× non-essential amino acids at 37° C. and 5% CO2. A-549 cells (DSM ACC-107) were cultured in DMEM high glucose (4.5 g/l) medium supplemented with FCS (10% v/v), penicillin (100 U/ml) and streptomycin (100 μg/ml) at 37° C. in a 5% CO2 incubator. K-562 (DSM ACC 10) and HeLa cells (DSM ACC 57) were grown in RPMI 1640, whereas cells of HUVEC (ATCC CRL-1730) were cultured in DMEM medium. The respective media were supplemented with ultraglutamine 1 (10 ml/l), gentamicin sulfate (500 μl/l), and FCS (10% v/v).
# Cells (3×10^5 Mono Mac 6, 1×10^5 A-549 cells, or 2×10^6 monocytes per well) were seeded in a 96-well plate in the respective medium (100 μl/well). Monocytes were allowed to adhere for 1.5 hours (37° C., 5% CO2) prior to treatment. […] Then, 20 μl of thiazolyl blue tetrazolium bromide (MTT, 5 mg/ml PBS) were added, and the incubation was continued at 37° C., 5% CO2 until blue staining of the vehicle control. Formazan formation was stopped by adding 100 μl of lysis buffer (SDS, 10%, w/v in 20 mM HCl) and samples were shaken overnight. Absorbance of each well was measured at 570 nm in a Multiskan™ microplate spectrophotometer (Thermo Scientific).
# [23] = test system: primary monocytes from human peripheral blood; experiment: MTT assay, cytotoxic activity; assay type: cell-based; details: incubation 24 or 48 hours
# Experimental: as §3
# Human primary monocytes were isolated from leukocyte concentrates, obtained from the Institute of Transfusion Medicine at the University Hospital Jena, Germany. The concentrates were prepared from the blood of healthy adult human donors who had not taken any anti-inflammatory medication for the 10 days prior to blood donation, as described. In brief, freshly withdrawn peripheral blood was pretreated with citrate-phosphate-dextrose solution as anticoagulant and processed with the 2C+ protocol of the Atreus Whole Blood Processing System (Terum BCT). Peripheral blood mononuclear cells (PBMC) were isolated by dextran sedimentation and centrifugation on LSM 1077 lymphocyte separation medium (PAA Laboratories). For isolation of monocytes, the PBMC were washed twice with ice-cold phosphate buffered saline (PBS) and plated (density 2×10^7 cells/ml) in culture flasks (Greiner Bio-One) containing PBMC medium (RPMI 1640 medium supplemented with 100 U/ml penicillin, 100 μg/ml streptomycin and 2 mM L-glutamine) for 1.5 hours at 37° C., 5% CO2. Non-adherent cells were removed; adherent monocytes were scraped, washed with ice-cold PBS and resuspended in ice-cold PBS with a purity of >85%, defined by forward- and side-light scatter properties and detection of the CD14 surface molecule by flow cytometry (BD FACS Calibur). […]
# Cells (3×10^5 Mono Mac 6, 1×10^5 A-549 cells, or 2×10^6 monocytes per well) were seeded in a 96-well plate in the respective medium (100 μl/well). […] Absorbance of each well was measured at 570 nm in a Multiskan™ microplate spectrophotometer (Thermo Scientific).
# [24] = test system: transformed lung epithelial A-549 cells; experiment: MTT assay, cytotoxic activity; assay type: cell-based, human; details: incubation 24 or 48 hours
# Experimental: as §3, §4
# Cells (3×10^5 Mono Mac 6, 1×10^5 A-549 cells, or 2×10^6 monocytes per well) were seeded in a 96-well plate in the respective medium (100 μl/well). Monocytes were allowed to adhere for 1.5 hours (37° C., 5% CO2) prior to treatment. Test compounds (0.3% DMSO as vehicle) were added to each well and samples were incubated for 48 hrs. Then, 20 μl of thiazolyl blue tetrazolium bromide (MTT, 5 mg/ml PBS) were added, and the incubation was continued at 37° C., 5% CO2 until blue staining of the vehicle control. Formazan formation was stopped by adding 100 μl of lysis buffer (SDS, 10%, w/v in 20 mM HCl) and samples were shaken overnight. Absorbance of each well was measured at 570 nm in a Multiskan™ microplate spectrophotometer (Thermo Scientific).
# [25] = test system: Staphylococcus aureus (MRSA) DSM-11822; experiment: MIC by microbroth dilution; assay type: cell-based; details: Staphylococcus aureus, 16 h
# Experimental: as §1, §2
molecule,measurement,setting,value
"CN(C)[C@@H]1C(O)=C(C(N)=O)C(=O)[C@@]2(O)C(O)=C3C(=O)c4c(O)cccc4[C@@](C)(O)[C@H]3[C@H](O)[C@@H]12.Cl [Oxytetracyclin hydrochloride, reference compound]",MIC,[1],0.42^[a] μg/ml
same,MIC,Bacillus subtilis DSM 10,4.2^[a] μg/ml
same,MIC,[2],0.83^[a] μg/ml
same,MIC,[3],0.52^[a] μg/ml
same,MIC,[4],1.7^[a] μg/ml
same,MIC,[5],≤0.052^[a] μg/ml
same,MIC,[6],3.3^[a] μg/ml
same,MIC,[7],0.83^[a] μg/ml
same,MIC,[8],0.21^[a] μg/ml
"C/C=C(/C)[C@H]1C/C=C(\C)[C@@H](O[C@H]2O[C@H](CO)[C@@H](O)[C@@H]2O)[C@H](OC(=O)CC(C)C)C(=O)C[C@@H](SC)[C@H](C)C(=O)O1 [Compound 6, disciformycin D]",MIC,[9],4000 ng/mL
same,MIC,[10],64000 ng/mL
same,MIC,[11],32000 ng/mL
same,MIC,[12],32000 ng/mL
same,MIC,[13],500 ng/mL
"CO[C@H]1/C=C/O[C@@]2(C)Oc3c(C)c(O)c4c(O)c(c(/C=N/N5CCN(C)CC5)c(O)c4c3C2=O)NC(=O)/C(C)=C\C=C\[C@H](C)[C@H](O)[C@@H](C)[C@@H](O)[C@@H](C)[C@H](OC(C)=O)[C@@H]1C [rifampicin, reference compound]",MIC,[9],1 ng/mL
same,MIC,[14],1 ng/mL
same,MIC,[15],1 ng/mL
same,MIC,[10],3 ng/mL
same,MIC,[11],1 ng/mL
same,MIC,[16],1 ng/mL
same,MIC,[12],3 ng/mL
same,MIC,"[13]; S. aureus N315 WT, read-out: MIC",3 ng/mL
same,MIC,[17],1 ng/mL
same,MIC,[18],5 ng/mL
same,MIC,[19],1 ng/mL
same,reduction of the number of intracellular bacteria,[20],ca. 4 logs
Gentamycin [reference compound],MIC,[21],42.0^[b] μg/ml
"CN[C@@H]1C[C@H]2O[C@@](C)([C@@H]1OC)n1c3ccccc3c3c4c(c5c6ccccc6n2c5c31)C(=O)NC4 [staurosporine, reference compound]",cell viability / cytotoxicity (MTT),[22],highly cytotoxic
same,cell viability / cytotoxicity (MTT),[23],highly cytotoxic
same,cell viability / cytotoxicity (MTT),[24],highly cytotoxic
"C/C=C(/C)[C@H]1C/C=C(\C)[C@@H](O[C@H]2O[C@H](CO)[C@@H](O)[C@@H]2O)[C@H](OC(=O)CC(C)C)C(=O)C[C@@H](OC)[C@H](C)C(=O)O1 [Compound 5, disciformycin C]",MIC,[9],32000 ng/mL
same,MIC,[10],> 64000 ng/mL
same,MIC,[11],> 64000 ng/mL
same,MIC,[12],> 64000 ng/mL
same,MIC,[13],4000 ng/mL
"CN[C@H](CC(C)C)C(=O)N[C@H]1C(=O)N[C@@H](CC(N)=O)C(=O)N[C@H]2C(=O)N[C@H]3C(=O)N[C@H](C(=O)N[C@H](C(=O)O)c4cc(O)cc(O)c4-c4cc3ccc4O)[C@H](O)c3ccc(c(Cl)c3)Oc3cc2cc(c3O[C@@H]2O[C@H](CO)[C@@H](O)[C@H](O)[C@H]2O[C@H]2C[C@](C)(N)[C@H](O)[C@H](C)O2)Oc2ccc(cc2Cl)[C@H]1O [Vancomycin, reference compound]",MIC,[25],830 ng/mL
